Assay results published in ChEMBL document CHEMBL1201862, “PubChem BioAssay data set” (2004).
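Cultured in 96-well plates, cells were exposed to test compound for 48 hours across five concentrations. GI50 = concentration required for 50% inhibition of growth.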 Calls of active or inactive are those of the source. Cut-off read from the data, not from the text of the source: active = GI50 up to about 1.1 µM and inactive = higher.

How the values were obtained:
Assay in all cases: growth of human tumour cells (NCI), 48 h
NCI-H522 = system: NCI-H522
HT-29 = system: HT-29
HL-60 = system: HL-60
SF-539 = system: SF-539
SNB-75 = system: SNB-75
Malme-3M = system: Malme-3M
IGROV-1 = system: IGROV-1
SK-MEL-28 = system: SK-MEL-28
CAKI-1 = system: CAKI-1
UACC-257 = system: UACC-257
Hs-578T = system: Hs-578T
HOP-62 = system: HOP-62
HOP-92 = system: HOP-92
OVCAR-5 = system: OVCAR-5
A549 = system: A549
DU-145 = system: DU-145
COLO 205 = system: COLO 205
EKVX = system: EKVX
SK-OV-3 = system: SK-OV-3
LOX IMVI = system: LOX IMVI

Measured: GI50

N#CCC(=O)Nn1c(CC#N)nnc1Cc1ccccc1
inactive: NCI-H522 > 100 µM | HT-29 > 100 µM | HL-60 > 100 µM | SF-539 > 100 µM | SNB-75 > 100 µM | Malme-3M > 100 µM | IGROV-1 > 100 µM | SK-MEL-28 > 100 µM | CAKI-1 > 100 µM | UACC-257 > 100 µM | Hs-578T > 100 µM | HOP-62 > 100 µM | HOP-92 > 100 µM | OVCAR-5 > 100 µM | A549 > 100 µM | DU-145 > 100 µM

Nc1ccc2nc3ccc(N)cc3[n+](-c3ccccc3)c2c1
inactive: NCI-H522 11.6 µM | HT-29 21.2 µM | HL-60 > 100 µM | SF-539 60.7 µM | SNB-75 42.1 µM | COLO 205 4.55 µM | Malme-3M 18.6 µM | IGROV-1 37.3 µM | EKVX > 100 µM | SK-MEL-28 > 100 µM | SK-OV-3 > 100 µM | CAKI-1 > 100 µM | UACC-257 9.27 µM | Hs-578T 40.6 µM | HOP-62 43.3 µM | HOP-92 67 µM | OVCAR-5 29.9 µM | A549 45.4 µM | DU-145 68.2 µM | LOX IMVI 15.7 µM

NCc1nnn(Cc2ccccc2)c1N
inactive: NCI-H522 > 100 µM | HT-29 > 100 µM | HL-60 > 100 µM | SF-539 > 100 µM | SNB-75 > 100 µM | COLO 205 > 100 µM | Malme-3M > 100 µM | IGROV-1 > 100 µM | EKVX > 100 µM | SK-MEL-28 > 100 µM | SK-OV-3 > 100 µM | CAKI-1 > 100 µM | UACC-257 > 100 µM | Hs-578T > 100 µM | HOP-62 > 100 µM | HOP-92 > 100 µM | OVCAR-5 > 100 µM | A549 > 100 µM | DU-145 > 100 µM | LOX IMVI > 100 µM

CCOc1ccc(NC2=CC(=O)C(=O)c3ccccc32)cc1
active: HL-60 0.459 µM
inactive: NCI-H522 1.81 µM | HT-29 5.35 µM | SF-539 1.97 µM | SNB-75 2.35 µM | COLO 205 3.64 µM | Malme-3M 2.08 µM | IGROV-1 4.29 µM | EKVX 16.4 µM | SK-MEL-28 3.27 µM | SK-OV-3 11.3 µM | CAKI-1 8.05 µM | UACC-257 1.63 µM | Hs-578T 2.37 µM | HOP-62 3.88 µM | HOP-92 9.48 µM | OVCAR-5 3.77 µM | A549 2.74 µM | DU-145 2.38 µM | LOX IMVI 1.3 µM

CN(C)CC1(Cc2ccccc2)CCC(Cc2ccccc2)C1=O (stereo not given)
inactive: NCI-H522 2.84 µM | HT-29 13 µM | HL-60 3.29 µM | SF-539 18.1 µM | SNB-75 14.4 µM | COLO 205 6.85 µM | Malme-3M 12.5 µM | IGROV-1 9.04 µM | EKVX 17.1 µM | SK-MEL-28 12.3 µM | SK-OV-3 21.8 µM | CAKI-1 13.3 µM | UACC-257 14.9 µM | Hs-578T 15.6 µM | HOP-62 18 µM | HOP-92 17.4 µM | OVCAR-5 18 µM | A549 17.3 µM | DU-145 14.8 µM | LOX IMVI 6.9 µM

CC(=O)Oc1cc(Cl)c(C)c2c1[C@H]1CC[C@]3(C)[C@@H](OC(C)=O)CC[C@H]3[C@@H]1CC2
inactive: NCI-H522 > 100 µM | HT-29 61.4 µM | HL-60 53.6 µM | SF-539 > 100 µM | SNB-75 > 100 µM | Malme-3M > 100 µM | IGROV-1 > 100 µM | EKVX > 100 µM | SK-MEL-28 > 100 µM | UACC-257 > 100 µM | Hs-578T > 100 µM | HOP-62 > 100 µM | HOP-92 > 100 µM | OVCAR-5 > 100 µM | A549 > 100 µM | DU-145 > 100 µM | LOX IMVI > 100 µM

CC[C@H]1C=CCC[C@@]2(C[C@@H]3CC[C@@H]4[C@H](C(=O)OCCCCCCCCCCCCCCCC(=O)O)[C@]5(CCC[C@@H](C)O5)NC(=[N+]34)N2)O1 [CRAMBESCIDIN 657]
active: NCI-H522 0.131 µM | HT-29 0.116 µM | HL-60 0.151 µM | SF-539 0.272 µM | COLO 205 0.139 µM | Malme-3M 0.153 µM | IGROV-1 0.193 µM | SK-MEL-28 0.743 µM | CAKI-1 0.182 µM | UACC-257 0.12 µM | Hs-578T 0.571 µM | HOP-62 0.367 µM | HOP-92 0.153 µM | OVCAR-5 0.221 µM | A549 0.164 µM | DU-145 0.191 µM | LOX IMVI 0.12 µM
inactive: EKVX 1.39 µM | SK-OV-3 5.38 µM

O=C(O)CN(CC(=O)O)Cc1ccn(-c2cccc(-n3ccc(CN(CC(=O)O)CC(=O)O)n3)n2)n1
active: HL-60 < 0.01 µM
inactive: NCI-H522 > 100 µM | HT-29 > 100 µM | SF-539 > 100 µM | SNB-75 > 100 µM | COLO 205 > 100 µM | Malme-3M > 100 µM | IGROV-1 > 100 µM | EKVX > 100 µM | SK-MEL-28 > 100 µM | SK-OV-3 > 100 µM | CAKI-1 > 100 µM | UACC-257 > 100 µM | Hs-578T > 100 µM | HOP-62 > 100 µM | HOP-92 > 100 µM | OVCAR-5 > 100 µM | A549 17.4 µM | DU-145 > 100 µM

O=[N+]([O-])/C=C1\COCc2cc3c(cc21)OCO3
inactive: NCI-H522 20.7 µM | HT-29 25.1 µM | HL-60 25.2 µM | SF-539 26.4 µM | SNB-75 16.5 µM | COLO 205 23.1 µM | IGROV-1 35.6 µM | EKVX 28.1 µM | SK-MEL-28 17.5 µM | SK-OV-3 42.7 µM | CAKI-1 13 µM | UACC-257 19.7 µM | Hs-578T 26.9 µM | HOP-62 38.9 µM | HOP-92 30.7 µM | OVCAR-5 19.9 µM | A549 22 µM | DU-145 19.1 µM | LOX IMVI 27.2 µM

COc1ccc(/C=C2\C[C@H]3[C@@H]4CC=C5C[C@@H](OC(C)=O)CC[C@]5(C)[C@H]4CC[C@]3(C)C2=O)cc1OC
inactive: NCI-H522 23.5 µM | HT-29 41.2 µM | HL-60 16.7 µM | SF-539 > 100 µM | SNB-75 > 100 µM | COLO 205 24.3 µM | Malme-3M 34.7 µM | IGROV-1 > 100 µM | EKVX 15.7 µM | SK-MEL-28 > 100 µM | CAKI-1 22.5 µM | UACC-257 19.8 µM | Hs-578T 58.6 µM | HOP-92 31.7 µM | OVCAR-5 41 µM | A549 28.5 µM | DU-145 > 100 µM | LOX IMVI 42.9 µM
active: HOP-62 0.815 µM

CCOC(=O)C1C[C@H]2CO[C@H](c3ccccc3)N2C1=O (stereo not given in full)
inactive: NCI-H522 > 100 µM | HT-29 > 100 µM | SF-539 > 100 µM | SNB-75 > 100 µM | COLO 205 > 100 µM | Malme-3M > 100 µM | IGROV-1 > 100 µM | EKVX > 100 µM | SK-MEL-28 > 100 µM | CAKI-1 > 100 µM | UACC-257 > 100 µM | Hs-578T > 100 µM | HOP-92 > 100 µM | OVCAR-5 > 100 µM | A549 > 100 µM | DU-145 > 100 µM | LOX IMVI > 100 µM

O=c1ccn(C2OC(CO)C(P(=O)(O)O)C2O)c(=O)[nH]1 (stereo not given)
inactive: NCI-H522 > 100 µM | HT-29 > 100 µM | HL-60 > 100 µM | SF-539 > 100 µM | SNB-75 > 100 µM | Malme-3M > 100 µM | IGROV-1 > 100 µM | EKVX > 100 µM | SK-MEL-28 > 100 µM | CAKI-1 > 100 µM | UACC-257 > 100 µM | Hs-578T > 100 µM | HOP-62 > 100 µM | HOP-92 > 100 µM | OVCAR-5 > 100 µM | A549 > 100 µM | DU-145 > 100 µM | LOX IMVI > 100 µM

N#CC1C=Cc2ccccc2N1C(=O)Oc1ccccc1 (stereo not given)
inactive: NCI-H522 22 µM | HT-29 44.3 µM | HL-60 19.3 µM | SF-539 69.8 µM | SNB-75 93.5 µM | COLO 205 58.7 µM | Malme-3M 48.4 µM | IGROV-1 68.2 µM | EKVX 42.4 µM | SK-MEL-28 > 100 µM | CAKI-1 84.3 µM | UACC-257 76.9 µM | Hs-578T 60 µM | HOP-92 58.6 µM | OVCAR-5 > 100 µM | A549 49.2 µM | DU-145 31.9 µM | LOX IMVI 39.9 µM

COC1=CC(=O)c2c(c(-c3nc(C)cs3)cn2C)C1=O
active: NCI-H522 1.06 µM | LOX IMVI 0.804 µM
inactive: HT-29 4.98 µM | HL-60 1.46 µM | SF-539 2.2 µM | SNB-75 1.75 µM | COLO 205 12.4 µM | IGROV-1 4.29 µM | EKVX 8.65 µM | SK-MEL-28 3.72 µM | SK-OV-3 41.2 µM | CAKI-1 5.97 µM | UACC-257 1.82 µM | Hs-578T 2.21 µM | HOP-62 3.05 µM | HOP-92 14.9 µM | OVCAR-5 6.76 µM | A549 3.32 µM | DU-145 3.76 µM

C=CCOc1ccc(C2c3c(n[nH]c3O)CC(O)(OCC)C2C(=O)OCC)cc1OC (stereo not given)
inactive: NCI-H522 > 100 µM | HT-29 > 100 µM | HL-60 > 100 µM | SF-539 > 100 µM | SNB-75 > 100 µM | COLO 205 > 100 µM | Malme-3M > 100 µM | IGROV-1 > 100 µM | EKVX > 100 µM | SK-MEL-28 > 100 µM | CAKI-1 > 100 µM | UACC-257 > 100 µM | Hs-578T > 100 µM | HOP-62 > 100 µM | HOP-92 > 100 µM | OVCAR-5 > 100 µM | A549 > 100 µM | DU-145 > 100 µM | LOX IMVI > 100 µM
